Laboratory results from US10105365B2, “Solid antiviral dosage forms” (AbbVie Inc., priority 2014, dated 2018).
Like-named read-outs stand apart in the source and are kept apart here.

Key:
[1] = Human pharmacokinetic study, Example 4 Arm II (single dose, crossover); type: in vivo; conditions: human, in vivo
Method: Formulation C5-12 and a second formulation were tested in Arm II of the study. Adult male and female subjects (N=30 for combined Arm I and Arm II studies) in general good health were selected to participate in the study according to the selection criteria. Subjects meeting the selection criteria were randomly assigned to one of the Regimen sequences as shown below in Table 4-A.
Study drug was administered as provided below in Table 4-B.
Each study regimen was taken orally with approximately 240 mL of water approximately 30 minutes after the start of standardized breakfast. Study regimens were administered orally in the morning on Study Day 1 of each period. For Regimen A the evening dose of the Single Tablet was taken orally with approximately 240 mL of water approximately 30 minutes after the start of the evening snack. Serial blood samples for pharmacokinetic analysis were collected 72 hours after dosing in each period.
The data presented in Tables 4-C through 4-G are preliminary data and are subject to database lock and final data verification.

[2] = Human pharmacokinetic study, Example 4 Arm III (14-day multiple dose, steady state); type: in vivo
[3] = Solubility (general statement); type: physicochemical; conditions: aqueous
[4] = Human pharmacokinetic study, Example 5 Arm I (single dose, replicated crossover); type: in vivo; conditions: single dose, non-fasting
Method: (§1) A Phase 1, non-fasting, open-label, two-arm, four-period, randomized, crossover study was conducted to compare and characterize the pharmacokinetics of (i) Triple Tablet when co-administered with Single Tablet, and (ii) Formulation C5-12 as discussed below. Part 1 was a single dose, two-treatment, randomized, four period, two sequence replicated crossover study with 88 subjects. Doses in the four periods were separated by at least 10 days. Part 2 was a multiple-dose, two-treatment, two period, randomized crossover study with 66 subjects. Dosing in each period was 14 days and doses in the two periods were separated by at least 10 days.
(§2) Adult male and female subjects in general good health were selected to participate in the study according to the selection criteria. Subjects meeting the selection criteria were randomly assigned to one of the sequences of Regimens A and B (four sequences for Arm I and two sequences for Arm II) as shown below in Table 5-A.
(§3) Study drug was administered as provided below in Table 5-B.
(§4) Each study regimen was taken orally with approximately 240 mL of water approximately 30 minutes after the start of standardized breakfast. Study regimens were administered orally in the morning on Study Day 1 of each period. Serial blood samples for pharmacokinetic analysis were collected 72 hours after dosing in each period.
Tables 5-C, 5-D, 5-E, and 5-F below report the Arm I pharmacokinetic data for Formulation C5-12 (separately reported for each of Compounds 1, 2, 3, and 4). Table 5-G presents the results of a relative bioavailability and 90% confidence interval analysis of the pharmacokinetic data for Formulation C5-12 relative to the reference regimen. The data presented in Tables 5-C through 5-G are preliminary data and are subject to database lock and final data verification by the statistician.

[5] = Human pharmacokinetic study, Example 5 Arm II (multiple dose, crossover); type: in vivo; conditions: in vivo
Method: as §1, §2, §3, §4

[6] = Sink Conditions dissolution testing of Formulation C5-12; type: physicochemical; conditions: N = 6
Method: The release profiles of Formulation C5-12 of Example 1 were evaluated in a Sink Conditions dissolution study. The study was conducted in 900 mL of dissolution medium using a standard USP dissolution Apparatus 2 (paddle) operating at 100 RPM at 37±0.5° C. The dissolution medium was a 0.05 M sodium phosphate buffer pH 6.8 with 15 mM cTAB as a surfactant.

[7] = Formulation C5-12, Day 14 versus Day 1
[8] = human, in vivo, oral, 3 Formulation C5-12 tablets daily, three Formulation C5-12 tablets daily for 14 days, non-fasting, Day 14, N = 14
[9] = three Formulation C5-12 tablets daily for 14 days, non-fasting, Day 1, N = 14
[10] = Regimen B (reference regimen): two Triple Tablets + one Single Tablet morning, one Single Tablet evening, N = 171

COC(=O)N[C@H](C(=O)N1CCC[C@H]1C(=O)Nc1ccc([C@@H]2CC[C@@H](c3ccc(NC(=O)[C@@H]4CCCN4C(=O)[C@@H](NC(=O)OC)C(C)C)cc3)N2c2ccc(C(C)(C)C)cc2)cc1)C(C)C [Compound 2]
AUCt, geometric mean ([1]; both): 1510 ng·h/mL | AUC∞, geometric mean ([1]; both): 1670 ng·h/mL | Cmax, geometric mean ([1]; both): 117 ng/mL | Tmax ([1]; both): 5.2 h | t1/2 ([1]; both): 23.2 h | C24, arithmetic mean, % CV ([1]; both, 24 h): (19.4, 29) ng/mL | C24, geometric mean ([1]; both, 24 h): 18.7 ng/mL | AUCt, arithmetic mean, % CV [1]: (1560, 25) ng · h/mL | AUC∞, arithmetic mean, % CV [1]: (1740, 29) ng · h/mL | Cmax, arithmetic mean, % CV [1]: (122, 31) ng/mL | Relative bioavailability, AUCinf, point estimate [1]: 1.022 | Relative bioavailability, Cmax, point estimate [1]: 1.038 | AUC24, RATIO [2, 7]: 1.34 | C24, RATIO [2, 7]: 1.72 | Cmax, RATIO [2, 7]: 1.10 | Tmax ([2]; human, in vivo, oral, 3 Formulation C5-12 tablets daily, three Formulation C5-12 tablets daily for 14 days, non-fasting, Day 1, N = 14): 5.5 h | concentration at 24 h ([2]; human, in vivo, oral, 3 Formulation C5-12 tablets daily, three Formulation C5-12 tablets daily for 14 days, non-fasting, Day 1, N = 14, read-out: C24, geometric mean): 23.4 ng/mL | Tmax [2, 8]: 5.6 h | half-life [2, 8]: 29.8 h | AUC ([2]; human, in vivo, oral, 3 Formulation C5-12 tablets daily, three Formulation C5-12 tablets daily for 14 days, non-fasting, Day 14, N = 14, read-out: AUC24, geometric mean): 1720 ng·h/mL | concentration at 24 h ([2]; human, in vivo, oral, 3 Formulation C5-12 tablets daily, three Formulation C5-12 tablets daily for 14 days, non-fasting, Day 14, N = 14, read-out: C24, geometric mean): 40.2 ng/mL | Cmax ([2]; human, in vivo, oral, 3 Formulation C5-12 tablets daily, three Formulation C5-12 tablets daily for 14 days, non-fasting, Day 14, N = 14, read-out: Cmax, geometric mean): 135 ng/mL | AUC24, geometric mean [2, 9]: 1280 ng·h/mL | Cmax, geometric mean [2, 9]: 123 ng/mL | β ([2]; three Formulation C5-12 tablets daily for 14 days, non-fasting, Day 14, N = 14): 0.023 h⁻¹ | Solubility [3]: low solubility | half-life ([4]; both sexes, human, blood, oral, 3 film-coated Formulation C5-12 tablets, Regimen A (C5-12): three film-coated Formulation C5-12 tablets, N = 172): 37.9 h | AUC(0-t) ([4]; both sexes, human, blood, oral, 3 film-coated Formulation C5-12 tablets, Regimen A (C5-12): three film-coated Formulation C5-12 tablets, N = 172, read-out: AUCt, geometric mean): 1660 ng·h/mL | AUC(0-inf) ([4]; both sexes, human, blood, oral, 3 film-coated Formulation C5-12 tablets, Regimen A (C5-12): three film-coated Formulation C5-12 tablets, N = 172, read-out: AUC∞, geometric mean): 1800 ng·h/mL | Tmax ([4]; both sexes, human, blood, oral, 3 film-coated Formulation C5-12 tablets, Regimen A (C5-12): three film-coated Formulation C5-12 tablets, N = 172, read-out: Tmax, first value (geometric mean)): 5 h | AUC(0-t) ([4]; both sexes, human, blood, oral, Regimen B (reference regimen): two Triple Tablets + one Single Tablet morning, one Single Tablet evening, N = 171, read-out: AUCt, geometric mean): 1630 ng·h/mL | AUC(0-inf) ([4]; both sexes, human, blood, oral, Regimen B (reference regimen): two Triple Tablets + one Single Tablet morning, one Single Tablet evening, N = 171, read-out: AUC∞, geometric mean): 1760 ng·h/mL | Tmax ([4]; both sexes, human, blood, oral, Regimen B (reference regimen): two Triple Tablets + one Single Tablet morning, one Single Tablet evening, N = 171, read-out: Tmax, first value (geometric mean)): 5 h | Cmax, geometric mean ([4]; Regimen A (C5-12): three film-coated Formulation C5-12 tablets, N = 172): 124 ng/mL | Cmax, geometric mean [4, 10]: 131 ng/mL | t1/2 [4, 10]: 39.2 h | Exposures versus the reference regimen [5]: bioequivalent | Relative bioavailability, AUC24, point estimate [5]: 1.098 | Relative bioavailability, AUCt, point estimate [5]: 1.091 | Relative bioavailability, Cmax, point estimate [5]: 1.087 | % Released ([6]; 1 hour, 900 mL 0.05 M sodium phosphate buffer pH 6.8, 15 mM cTAB, USP Apparatus 2, 100 RPM, 37 °C): 55% | % Released ([6]; 4 hours, pH 6.8 buffer, 15 mM cTAB): 98% | % Released ([6]; 6 hours, pH 6.8 buffer, 15 mM cTAB): 99% | % Released ([6]; 8 hours, pH 6.8 buffer, 15 mM cTAB): 103% | % Released ([6]; 12 hours, pH 6.8 buffer, 15 mM cTAB): 102% | % Released ([6]; 16 hours, pH 6.8 buffer, 15 mM cTAB): 102%
